Experimental data from PubChem BioAssay (NCI).
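In this assay, cells in 96-well plates receive the compound at five concentrations for 48 hours. Endpoints are linearly interpolated between the surrounding concentrations. TGI denotes the concentration required for complete inhibition of growth.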 Where a SMILES comes first, the peptide text is derived from it. The star is where a group is joined. Cbz = O=C(OCc1ccccc1)*; Boc = CC(C)(C)OC(=O)*; OSu = O=C1CCC(=O)N1O*; Bn = c1ccc(C*)cc1

Columns and labels:
Assay in all cases: DTP human tumour cell line panel, 48 h
[1] = tested on: NCI-H522 lung
[2] = tested on: OVCAR-5 ovarian
[3] = tested on: RPMI-8226 leukemia
[4] = tested on: RXF 393 renal
[5] = tested on: SK-MEL-28 melanoma
[6] = tested on: SNB-19 CNS
[7] = tested on: SNB-75 CNS
[8] = tested on: TK-10 renal
[9] = tested on: UACC-62 melanoma
[10] = tested on: MDA-MB-435
[11] = tested on: PC-3 prostate

Structure (SMILES) | TGI [1] [µM] | TGI [2] [µM] | TGI [3] [µM] | TGI [4] [µM] | TGI [5] [µM] | TGI [6] [µM] | TGI [7] [µM] | TGI [8] [µM] | TGI [9] [µM] | TGI [10] [µM] | TGI [11] [µM]
Cc1nc(-n2nc(-c3ccccc3)cc2-c2ccccc2)sc1C(=O)/C=C/c1ccccc1 | > 100 | > 100 | > 100 | > 100 | > 100 | > 100 | 89.7 | > 100 | > 100 |  | 
CCOC(=O)C1C(c2ccc(OC)cc2)c2c([nH]n(-c3ccccc3)c2=O)CC1(C)O (stereo unspecified) | > 100 | > 100 | > 100 |  | > 100 | > 100 | > 100 | > 100 | > 100 | > 100 | > 100
CN(/N=C\c1ccc2ccccc2c1)C1=NCCCN1 | 30.3 | > 100 | 50.7 | 35.4 | 29.8 |  | 91.2 | 34.2 | 34.5 | 30.8 | 
CC(=O)C(C(C)=O)[C@H]1OC(C)(C)O[C@H]1[C@H]1COC(C)(C)O1 | 93.3 | > 100 |  | > 100 | > 100 | > 100 | > 100 | > 100 | > 100 | > 100 | 68.9
CN(C)C(=O)Oc1ccc(C(=S)Nc2ccccc2)cc1 | > 100 | > 100 | > 100 |  | > 100 | > 100 |  |  | > 100 | > 100 | > 100
C[n+]1c2ccccc2c(C(=O)Nc2ccc(S(=O)(=O)Nc3ncccn3)cc2)c2ccccc21 |  | > 100 | > 100 |  | > 100 | > 100 | > 100 | > 100 | > 100 | > 100 | > 100
CCOC(=O)c1c(-c2ccccc2)c(C)cn1C | > 10 | > 10 |  | > 10 |  | > 10 | > 10 | > 10 | > 10 | > 10 | 
COC(=O)CC1CC2(C(=O)OC)c3[nH]c4ccccc4c3CCN2C1=O (stereo unspecified) | > 100 | > 100 |  | > 100 | > 100 | > 100 | > 100 | > 100 | > 100 |  | 
c1ccc(Nc2nnc(CCCCCCCCc3nnc(Nc4ccccc4)o3)o2)cc1 | > 100 | > 100 |  | > 100 | > 100 | > 100 | > 100 | > 100 |  | > 100 | > 100
NC(N)=NCCCC(NC(=O)c1c2ccccc2nc2ccccc12)C(=O)O (stereo unspecified) | > 100 | > 100 | > 100 |  | > 100 | > 100 | > 100 | > 100 | > 100 | > 100 | > 100
CC(=O)N[C@@H](Cc1ccc(O)cn1)C(=O)NC1CCCCC1 | > 100 | > 100 | > 100 |  | > 100 | > 100 |  | > 100 | > 100 | > 100 | > 100
COc1cc2c(cc1OC)C(=O)/C(=C/c1ccc(N(C)C)cc1)CC2 |  | > 10 | > 10 | > 10 | > 10 | > 10 |  | > 10 | > 10 | > 10 | > 10
COC(=O)[C@@H]1COC(=O)N1 | > 100 | > 100 |  | > 100 | > 100 | > 100 | > 100 | > 100 | > 100 | > 100 | > 100
O=C(O)Cn1ccc(=O)c2cc([N+](=O)[O-])ccc21 | > 100 | > 100 |  |  | > 100 | > 100 | > 100 | > 100 | > 100 | > 100 | > 100
Clc1ccc(C2=NCON=C2c2ccc(Cl)cc2)cc1 |  | 90.7 | 40.6 | 44.8 |  | > 100 | 74.2 | 66.3 | 37.8 |  | 68.2
O=c1[nH]c2ccc([N+](=O)[O-])cc2nc1/C(=N/Nc1ccccc1)C(O)c1ccco1 (stereo unspecified) | 96.5 | > 100 | > 100 | > 100 | > 100 | > 100 | > 100 | > 100 | > 100 |  | 
O=C(O)C1(C(O)c2ccccc2)SCCCS1 (stereo unspecified) |  | > 10 |  | > 10 | > 10 | > 10 | > 10 | > 10 | > 10 | > 10 | > 10

Structure (SMILES) | TGI [1] [µM] | TGI [2] [µM] | TGI [3] [µM] | TGI [4] [µM] | TGI [5] [µM] | TGI [6] [µM] | TGI [7] [µM] | TGI [8] [µM] | TGI [9] [µM] | TGI [10] [µM] | TGI [11] [µM]
O=CC1=CCC2c3[nH]c4ccccc4c3CCN2C1 (stereo unspecified) | > 396 | > 396 | > 396 | > 396 | 248 | > 396 |  | > 396 | > 396 |  | 
CC[C@]1(Cc2ccc(OC)c(OC)c2)C=[N+]([O-])O[C@H](OC2CCCC2(c2ccccc2)c2ccccc2)[C@@H]1OC(=O)C(C)(C)C (stereo partly specified) | 4.99 | > 39.9 |  | 3.53 | 4.22 | 30.3 | 13.4 | > 25.4 | 17.4 | 4.12 | 14.8
CC1=CCN(c2ccccn2)OC1c1ccccc1 (stereo unspecified) | > 100 | > 100 | > 100 | > 100 | > 100 | > 100 | > 100 |  | > 100 |  | 
Cc1ccc(-n2cc(-c3ccc(Cl)cc3)c3c(=N)n(N)cnc32)cc1 | 28 | 27.9 |  | 15.7 | 26.7 | 24.4 | 25.9 | 28.7 | 26.4 | 23.1 | 19.4
C#CCOC(=O)C(=[N+]=[N-])C(=O)CC(C)C |  | > 10 | > 10 | > 10 | > 10 | > 10 |  | > 10 | > 10 | > 10 | > 10
CCCCCCCCCCCCC1N=C(N)N2CCCC2=C1C(=O)OC (stereo unspecified) | 3.26 | 13 |  | 69.4 | 3.1 | 3.41 | 3.05 | > 48.7 | 3.36 | 3.09 | 3.95
O=C1CNN=C(Cn2nc(-c3ccccc3)c3ccccc3c2=O)N1 | > 100 | > 100 | > 100 |  | > 100 | > 100 | > 100 | > 100 | > 100 |  | 
COc1ccc(-c2cc(-c3ccco3)c(C#N)c(=O)[nH]2)cc1 | 54 | > 100 | > 100 | > 100 | > 100 | > 100 | > 100 | > 100 | > 100 |  | 
N#Cc1c(N)nc(Sc2ccccc2N)c(C#N)c1-c1ccccc1 |  | > 100 | > 100 |  | > 100 | > 100 |  | 34.2 | 26.6 | 97.3 | 33.3
S=c1[nH]nc(CCCCCCCCc2n[nH]c(=S)o2)o1 |  | > 100 |  | > 100 | > 100 | > 100 | > 100 | > 100 |  | > 100 | > 100
O=S(=O)(O)c1cc(O)c(N=Nc2ccc3ccccc3c2O)c2ccccc12 | 40.2 | > 100 | > 100 | > 100 | > 100 | > 100 | 79.1 | > 100 | 42.3 |  | > 100
O=C(/C(=C/c1ccc(O)cc1)c1ccccc1)c1ccccc1 | 28.7 | 32 | 42.3 |  | 31.9 |  | 42.5 | 48.5 | 27.1 |  | 
CCCCCCCCCCCCCCCC(=O)OCC1OC(n2cc(F)c(=O)[nH]c2=O)C(NC(=O)N(CCCl)N=O)C(O)C1O (stereo unspecified) | 10 | 25.9 | 20.5 | 8.37 | 7.96 | 8.71 | 1.56 | 26.1 | 1.17 |  | 
Cn1c(NC(=O)NC23CC4CC(CC(C4)C2)C3)nc2ccccc21 | > 100 | > 100 | > 100 | 57.4 | > 100 | > 100 | 21.1 | > 100 | > 100 |  | 
COC(=O)c1ccccc1C1CN=NC12Cc1c(C)ccc(C)c1C2=O (stereo unspecified) | > 100 | > 100 |  | > 100 | > 100 | > 100 | > 100 | > 100 | > 100 | > 100 | > 100
C=CCN1C(=O)CC(=O)N(NC2=NNC3(C(=O)N2)c2ccccc2-c2ccccc23)C1=S | 96.3 | > 100 |  | > 100 | > 100 | > 100 | > 100 | > 100 | > 100 | > 100 | > 100
CC(C)(C)OC(=O)NC(Cc1ccc(OCc2ccccc2)cc1)C(=O)NC(CCCCNC(=O)OCc1ccccc1)C(=O)NC(CCCCNC(=O)OCc1ccccc1)C(=O)ON1C(=O)CCC1=O (stereo unspecified) (Boc-Tyr(Bn)-Lys(Cbz)-Lys(Cbz)-OSu; configuration not given here) | 39.7 | > 100 | > 100 | > 100 | > 100 | 30.7 | > 100 | > 100 | 34.6 | > 100 | 
